Results as given in publication PMC13343842, “The accessory protein CvnF8 modulates histidine kinase activity in an actinobacterial G protein system in Streptomyces coelicolor” (mBio, 2026).

Target: T1, CvnA8 (Streptomyces coelicolor, UniProt Q9KYJ8, H183A)
T1 construct: truncated, two N-terminal transmembrane helices removed; printed as 'nucleotides 55–518' (probably residues 55-518); N-terminal 3x Strep tag kept; E. coli BL21(DE3); Strep-Tactin XT and SEC
Assay: Kinase-Glo Plus luminescence ATP consumption, Michaelis-Menten fit
Format: biochemical
Settings: 1.5 µM CvnA8 H183A, 25 mM Tris pH 8.0, 150 mM NaCl, 100 mM MgCl2, 37 °C; 0-300 µM ATP

T1 sequence (Q9KYJ8 entry or part of it H183A): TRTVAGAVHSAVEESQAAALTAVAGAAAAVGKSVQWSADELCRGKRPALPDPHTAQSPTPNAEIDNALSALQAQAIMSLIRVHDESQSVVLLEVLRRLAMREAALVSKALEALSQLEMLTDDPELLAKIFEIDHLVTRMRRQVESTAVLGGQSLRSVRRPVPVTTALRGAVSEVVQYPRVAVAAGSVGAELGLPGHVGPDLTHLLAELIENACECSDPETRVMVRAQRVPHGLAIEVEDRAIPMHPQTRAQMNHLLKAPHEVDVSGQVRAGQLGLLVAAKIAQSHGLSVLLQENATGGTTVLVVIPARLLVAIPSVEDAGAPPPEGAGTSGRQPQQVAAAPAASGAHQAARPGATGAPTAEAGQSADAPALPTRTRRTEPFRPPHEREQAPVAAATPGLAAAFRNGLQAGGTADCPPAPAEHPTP

Nc1ncnc2c1ncn2[C@@H]1O[C@H](COP(=O)(O)OP(=O)(O)OP(=O)(O)O)[C@@H](O)[C@H]1O [ATP]
Kinase-Glo Plus luminescence ATP consumption, Michaelis-Menten fit: drastically reduced in the H183A mutant, which prohibited the calculation of a nominal kcat
